In patent US9637453B2, “3-spirocyclic-6-hydroxamic acid tetralins as HDAC inhibitors” (Forma Therapeutics, Inc., priority 2015, dated 2017) one finds IC50 data, which are given here for 21 compounds.

Assay [1] addresses T1, Full length human recombinant HDAC6 (Homo sapiens, UniProt Q9UBN7).
T1 construct: Full length human recombinant HDAC6 and HDAC11 proteins were expressed in baculoviral system
T1 sequence (Q9UBN7 1-1215): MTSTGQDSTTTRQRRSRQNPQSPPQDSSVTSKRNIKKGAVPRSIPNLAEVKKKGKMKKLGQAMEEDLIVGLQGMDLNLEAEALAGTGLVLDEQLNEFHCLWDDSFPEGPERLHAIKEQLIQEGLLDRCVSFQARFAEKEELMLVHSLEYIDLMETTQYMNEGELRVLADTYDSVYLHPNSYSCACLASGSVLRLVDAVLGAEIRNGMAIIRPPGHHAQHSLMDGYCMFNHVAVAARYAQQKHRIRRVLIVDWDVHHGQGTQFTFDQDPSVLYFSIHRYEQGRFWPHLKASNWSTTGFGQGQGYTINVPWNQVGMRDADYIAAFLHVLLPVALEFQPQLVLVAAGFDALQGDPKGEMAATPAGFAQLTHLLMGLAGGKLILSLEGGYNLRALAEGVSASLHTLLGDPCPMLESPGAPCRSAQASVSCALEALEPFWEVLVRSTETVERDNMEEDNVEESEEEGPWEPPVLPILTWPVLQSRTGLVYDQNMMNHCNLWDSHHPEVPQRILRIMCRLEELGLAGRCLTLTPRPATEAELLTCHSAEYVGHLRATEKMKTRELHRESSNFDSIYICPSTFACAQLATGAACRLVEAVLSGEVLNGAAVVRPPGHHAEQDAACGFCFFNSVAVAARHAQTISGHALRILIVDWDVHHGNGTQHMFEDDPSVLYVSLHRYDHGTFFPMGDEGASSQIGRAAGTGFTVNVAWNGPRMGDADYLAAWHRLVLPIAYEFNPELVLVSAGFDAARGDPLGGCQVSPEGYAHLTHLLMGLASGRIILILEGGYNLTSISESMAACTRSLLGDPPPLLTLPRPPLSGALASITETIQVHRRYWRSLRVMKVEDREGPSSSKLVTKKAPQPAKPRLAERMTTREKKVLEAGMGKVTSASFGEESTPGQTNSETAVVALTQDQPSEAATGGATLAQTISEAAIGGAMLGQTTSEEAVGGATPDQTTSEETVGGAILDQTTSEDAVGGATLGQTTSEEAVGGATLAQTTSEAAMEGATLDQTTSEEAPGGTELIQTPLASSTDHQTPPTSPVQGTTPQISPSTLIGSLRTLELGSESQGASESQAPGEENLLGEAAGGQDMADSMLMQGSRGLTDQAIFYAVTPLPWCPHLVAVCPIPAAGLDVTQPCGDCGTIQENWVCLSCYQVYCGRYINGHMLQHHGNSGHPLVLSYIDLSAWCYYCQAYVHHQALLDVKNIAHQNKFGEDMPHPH
Description: In vitro histone deacetylase assay, enzymatic HDAC6 (electrophoretic mobility shift assay). The conditions noted are these: 1 nM HDAC6; 2 μM peptide substrate FAM-RHKK(Ac)—NH2; 25° C.; 12 concentrations; read-out: HDAC6 Activity Range (IC50). Format: biochemical. The essentials:
(§1)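 Baculovirus-expressed full-length enzymes (HDAC6 1 nM, FAM-RHKK(Ac)-NH2; HDAC11 10 nM, FAM-RHKK(tri-fluor-Ac)-NH2), 2 μM substrate, HEPES pH 7.5, 25°C, 12-point 3× dilutions. Product/substrate separated by microfluidic mobility shift after SDS quench; IC50 from 4-parameter fit, reported as +/++/+++ bins.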
(In EMSA bound probe runs differently from free probe, usually more slowly.)

The target of assay [2] is T2, Full length human recombinant HDAC11 (Homo sapiens, UniProt Q96DB2).
T2 construct: Full length human recombinant HDAC6 and HDAC11 proteins were expressed in baculoviral system
T2 sequence (Q96DB2 1-347): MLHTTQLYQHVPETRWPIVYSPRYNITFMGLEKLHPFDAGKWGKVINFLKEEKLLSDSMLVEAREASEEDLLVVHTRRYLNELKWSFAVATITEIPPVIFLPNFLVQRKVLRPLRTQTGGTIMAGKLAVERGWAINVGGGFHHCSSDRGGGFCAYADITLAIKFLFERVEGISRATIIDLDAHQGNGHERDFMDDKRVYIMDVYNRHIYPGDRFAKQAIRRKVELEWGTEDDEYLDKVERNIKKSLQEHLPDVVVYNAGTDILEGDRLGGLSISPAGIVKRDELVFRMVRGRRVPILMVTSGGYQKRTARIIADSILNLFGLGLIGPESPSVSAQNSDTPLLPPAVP
The assay can be described thus: In vitro histone deacetylase assay, enzymatic HDAC11 (electrophoretic mobility shift assay). The following applies: 10 nM HDAC11; 2 μM peptide substrate FAM-RHKK(tri-fluor-Ac)—NH2; 25° C.; 12 concentrations; read-out: HDAC11 Activity Range (IC50). Format: biochemical. The essentials:
as §1

As a reminder, the IC50 is the midpoint of a concentration-inhibition curve. As for `COCCn1c(CN2CC[C@]3(CCc4ccc(C(=O)NO)cc4C3)C2=O)nc2ccccc21` [Compound I-46, (R)—N-hydroxy-1′-((1-(2-methoxyethyl)-1H-benzo[d]imidazol-2-yl)methyl)-2′-oxo-3,4-dihydro-1H-spiro[naphthalene-2,3′-pyrrolidine]-7-carboxamide], the IC50 is at most 100 nM in assay [1] and 100 to 500 nM in assay [2].
`O=C(NO)c1ccc2c(c1)C[C@]1(CCNC1=O)CC2` [Compound I-47, (S)—N-hydroxy-2′-oxo-3,4-dihydro-1H-spiro[naphthalene-2,3′-pyrrolidine]-7-carboxamide]: the half-maximal inhibitory concentration (IC50) was at most 100 nM in assay [1] and above 500 nM in assay [2].
For `O=C(NO)c1ccc2c(c1)C[C@@]1(CCNC1=O)CC2` [Compound I-48, (R)—N-hydroxy-2′-oxo-3,4-dihydro-1H-spiro[naphthalene-2,3′-pyrrolidine]-7-carboxamide], the figures for the IC50 in assay [1] and in assay [2] were at most 100 nM and above 500 nM, respectively.
As for `O=C(NO)c1ccc2c(c1)C[C@@]1(CC2)CCN(Cc2cnc(Cl)s2)C1=O` [Compound I-49, (S)-1′-((2-chlorothiazol-5-yl)methyl)-N-hydroxy-2′-oxo-3,4-dihydro-1H-spiro[naphthalene-2,3′-pyrrolidine]-7-carboxamide], the IC50 in assay [1] is at most 100 nM; in assay [2], above 500 nM.
`O=C(NO)c1ccc2c(c1)C[C@@]1(CC2)CCN(Cc2cnc(O)s2)C1=O` [Compound I-50, (S)—N-hydroxy-1′-((2-hydroxythiazol-5-yl)methyl)-2′-oxo-3,4-dihydro-1H-spiro[naphthalene-2,3′-pyrrolidine]-7-carboxamide]: the IC50 was at most 100 nM in assay [1] and above 500 nM in assay [2].
For `CS(=O)(=O)c1ccc(CN2CC[C@]3(CCc4ccc(C(=O)NO)cc4C3)C2=O)cc1` [Compound I-51, (R)—N-hydroxy-1′-(4-(methylsulfonyl)benzyl)-2′-oxo-3,4-dihydro-1H-spiro[naphthalene-2,3′-pyrrolidine]-7-carboxamide], the IC50 in assay [1] and in assay [2] was at most 100 nM in each case.
With `CCCN1CC[C@@]2(CCc3ccc(C(=O)NO)cc3C2)C1=O` [Compound I-52, (S)—N-hydroxy-2′-oxo-1′-propyl-3,4-dihydro-1H-spiro[naphthalene-2,3′-pyrrolidine]-7-carboxamide], the IC50 in assay [1] is at most 100 nM; in assay [2], above 500 nM.
Turning to `O=C(NO)c1ccc2c(c1)C[C@@]1(CC2)CCN(CC2CCC2)C1=O` [Compound I-53, (S)-1′-(cyclobutylmethyl)-N-hydroxy-2′-oxo-3,4-dihydro-1H-spiro[naphthalene-2,3′-pyrrolidine]-7-carboxamide], the IC50 in assay [1] was at most 100 nM; in assay [2] it was above 500 nM.
The matching figures for `CC(C)CCN1CC[C@@]2(CCc3ccc(C(=O)NO)cc3C2)C1=O` [Compound I-54, (S)—N-hydroxy-1′-isopentyl-2′-oxo-3,4-dihydro-1H-spiro[naphthalene-2,3′-pyrrolidine]-7-carboxamide]: at most 100 nM and above 500 nM.
Consider `CC#CCN1CC[C@@]2(CCc3ccc(C(=O)NO)cc3C2)C1=O` [Compound I-55, (S)-1′-(but-2-yn-1-yl)-N-hydroxy-2′-oxo-3,4-dihydro-1H-spiro[naphthalene-2,3′-pyrrolidine]-7-carboxamide], for which the IC50 in assay [1] was at most 100 nM; in assay [2] it was above 500 nM.
As to `COCCN1CC[C@@]2(CCc3ccc(C(=O)NO)cc3C2)C1=O` [Compound I-56, (S)—N-hydroxy-1′-(2-methoxyethyl)-2′-oxo-3,4-dihydro-1H-spiro[naphthalene-2,3′-pyrrolidine]-7-carboxamide], the IC50 is at most 100 nM in assay [1] and above 500 nM in assay [2].
Turning to `O=C(NO)c1ccc2c(c1)C[C@@]1(CC2)CCN(CC2CCOCC2)C1=O` [Compound I-57, (S)—N-hydroxy-2′-oxo-1′-((tetrahydro-2H-pyran-4-yl)methyl)-3,4-dihydro-1H-spiro[naphthalene-2,3′-pyrrolidine]-7-carboxamide], the IC50 in assay [1] was at most 100 nM; in assay [2], above 500 nM.
For the compound `O=C(NO)c1ccc2c(c1)C[C@@]1(CC2)CCN(C/C=C/c2ccccc2)C1=O` [Compound I-58, (S)-1′-cinnamyl-N-hydroxy-2′-oxo-3,4-dihydro-1H-spiro[naphthalene-2,3′-pyrrolidine]-7-carboxamide], the half-maximal inhibitory concentration (IC50) is at most 100 nM in assay [1] and 100 to 500 nM in assay [2].
For the compound `Cc1ccccc1CN1CC[C@@]2(CCc3ccc(C(=O)NO)cc3C2)C1=O` [Compound I-59, (S)—N-hydroxy-1′-(2-methylbenzyl)-2′-oxo-3,4-dihydro-1H-spiro[naphthalene-2,3′-pyrrolidine]-7-carboxamide], the IC50 in assay [1] is at most 100 nM; in assay [2], above 500 nM.
For `O=C(NO)c1ccc2c(c1)C[C@@]1(CC2)CCN(Cc2ccccc2C(F)(F)F)C1=O` [Compound I-60, (S)—N-hydroxy-2′-oxo-1′-(2-(trifluoromethyl)benzyl)-3,4-dihydro-1H-spiro[naphthalene-2,3′-pyrrolidine]-7-carboxamide], the IC50 was at most 100 nM in assay [1] and above 500 nM in assay [2].
For `O=C(NO)c1ccc2c(c1)C[C@@]1(CC2)CCN(Cc2ccccc2Cl)C1=O` [Compound I-61, (S)-1′-(2-chlorobenzyl)-N-hydroxy-2′-oxo-3,4-dihydro-1H-spiro[naphthalene-2,3′-pyrrolidine]-7-carboxamide], the IC50 in assay [1] was at most 100 nM; in assay [2], above 500 nM.
In the same order, the values of `O=C(NO)c1ccc2c(c1)C[C@@]1(CC2)CCN(Cc2ccccc2OC(F)(F)F)C1=O` [Compound I-62, (S)—N-hydroxy-2′-oxo-1′-(2-(trifluoromethoxy)benzyl)-3,4-dihydro-1H-spiro[naphthalene-2,3′-pyrrolidine]-7-carboxamide] are 100 to 500 nM and above 500 nM.
Consider `O=C(NO)c1ccc2c(c1)C[C@@]1(CC2)CCN(Cc2ccc3nonc3c2)C1=O` [Compound I-63, (S)-1′-(benzo[c][1,2,5]oxadiazol-5-ylmethyl)-N-hydroxy-2′-oxo-3,4-dihydro-1H-spiro[naphthalene-2,3′-pyrrolidine]-7-carboxamide], for which the half-maximal inhibitory concentration (IC50) in assay [1] is at most 100 nM; in assay [2], above 500 nM.
On to `O=C(NO)c1ccc2c(c1)C[C@@]1(CC2)CCN(CC(=O)N2CCOCC2)C1=O` [Compound I-64, (S)—N-hydroxy-1′-(2-morpholino-2-oxoethyl)-2′-oxo-3,4-dihydro-1H-spiro[naphthalene-2,3′-pyrrolidine]-7-carboxamide], for which the IC50 in assay [1] is at most 100 nM; in assay [2] it was above 500 nM.
In the same order, the values of `COc1ccccc1CN1CC[C@@]2(CCc3ccc(C(=O)NO)cc3C2)C1=O` [Compound I-65, (S)—N-hydroxy-1′-(2-methoxybenzyl)-2′-oxo-3,4-dihydro-1H-spiro[naphthalene-2,3′-pyrrolidine]-7-carboxamide] are at most 100 nM and above 500 nM.
In the same order, the values of `CC(C)n1c(CN2CC[C@@]3(CCc4ccc(C(=O)NO)cc4C3)C2=O)nc2ccccc21` [Compound I-66, (S)—N-hydroxy-1′-((1-isopropyl-1H-benzo[d]imidazol-2-yl)methyl)-2′-oxo-3,4-dihydro-1H-spiro[naphthalene-2,3′-pyrrolidine]-7-carboxamide] are at most 100 nM and above 500 nM.
